From patent US10131652B2, “Pyrimidinyloxy benzene derivatives as herbicides” (E. I. DU PONT DE NEMOURS AND COMPANY, priority 2014, dated 2018)
Like-named read-outs stand apart in the source and are kept apart here.

Tests used:
Type in all cases: in vivo
[1] = test system: ducksalad (Heteranthera limosa); experiment: Test C flooded paddy test plant response; conditions: Heteranthera limosa; Flood, 250 g ai/ha; scale of 0 to 100 where 0 is no effect and 100 is complete control; 13 to 15 days; read-out: Ducksalad plant response rating
Outline: (§1)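 Visual injury ratings (0, no effect; 100, complete control) were assigned after 13 to 15 days in a greenhouse, comparing treated plants with controls. Compounds had been added straight into paddy water over 2-leaf-stage plants flooded to 3 cm.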

[2] = test system: small-flower umbrella sedge (Cyperus difformis); experiment: Test C flooded paddy test plant response; conditions: Cyperus difformis; Flood, 250 g ai/ha; scale of 0 to 100 where 0 is no effect and 100 is complete control; 13 to 15 days; read-out: Sedge, Umbrella plant response rating
Outline: as §1

[3] = test system: barnyardgrass (Echinochloa crus-galli); experiment: Test C flooded paddy test plant response; conditions: Echinochloa crus-galli; Flood, 250 g ai/ha; scale of 0 to 100 where 0 is no effect and 100 is complete control; 13 to 15 days; read-out: Barnyardgrass plant response rating
Outline: as §1

rice (Oryza sativa) = experiment: Test C flooded paddy test plant response; conditions: Oryza sativa; Flood, 250 g ai/ha; scale of 0 to 100 where 0 is no effect and 100 is complete control; 13 to 15 days; read-out: Rice plant response rating
Outline: as §1

[4] = test system: galium (catchweed bedstraw, Galium aparine); experiment: Test B postemergence plant response
Outline: (§2)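 Values are visual control ratings (0 to 100) recorded approximately 10 days after postemergence application to greenhouse-grown plants of 2 to 10 cm, one- to two-leaf stage, each judged against untreated controls.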

[5] = test system: blackgrass (Alopecurus myosuroides); experiment: Test B postemergence plant response
Outline: as §2

wild oat (Avena fatua) = experiment: Test D postemergence plant response; conditions: Avena fatua, post-emergence
Outline: (§3)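 Visual scoring from 0 (no effect) to 100 (complete control), relative to controls, 13–15 days after treatment in the greenhouse. Compounds were applied postemergence at the 1- to 4-leaf stage (2–18 cm) to potted plants in peat-based medium.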

kochia (Kochia scoparia) [6] = experiment: Test D postemergence plant response; conditions: Bassia scoparia, post-emergence
Outline: as §3

[7] = test system: chickweed (common chickweed, Stellaria media); experiment: Test D postemergence plant response; conditions: Stellaria media, post-emergence
Outline: as §3

[8] = test system: Italian ryegrass (Lolium multiflorum); experiment: Test B pre-/postemergence plant response
Outline: (§4)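 Evaluation is visual, about 10 days after application, rating injury from 0 (none) to 100 (complete control) relative to untreated controls. Application was a preemergence soil spray on seeded pots or a postemergence spray on one- to two-leaf plants.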

corn (Zea mays) = experiment: Test B pre-/postemergence plant response; conditions: Zea mays, post-emergence, 240 h
Outline: as §4

kochia (Kochia scoparia) [9] = experiment: Test B pre-/postemergence plant response
Outline: as §4

[10] = test system: pigweed (Amaranthus retroflexus); experiment: Test B pre-/postemergence plant response; conditions: Amaranthus retroflexus, 240 h, read-out: Plant response rating, Pigweed; for pest or weed control at 125 g/ha: 125 g ai/ha; for pest or weed control at 500 g/ha: 500 g ai/ha
Outline: as §4

[11] = test system: barnyardgrass (Echinochloa crus-galli); experiment: Test B pre-/postemergence plant response; conditions: Echinochloa crus-galli, 240 h, read-out: Plant response rating, Barnyardgrass; for pest or weed control at 125 g/ha: 125 g ai/ha; for pest or weed control at 500 g/ha: 500 g ai/ha
Outline: as §4

[12] = test system: wheat (Triticum aestivum); experiment: Test B pre-/postemergence plant response; conditions: Triticum aestivum, post-emergence, 240 h, read-out: Plant response rating, Wheat
Outline: as §4

[13] = test system: ragweed (common ragweed, Ambrosia elatior); experiment: Test B pre-/postemergence plant response
Outline: as §4

[14] = test system: giant foxtail (Setaria faberii); experiment: Test B pre-/postemergence plant response; conditions: Setaria faberi, 240 h, read-out: Plant response rating, Foxtail, Giant; for pest or weed control at 125 g/ha: 125 g ai/ha; for pest or weed control at 500 g/ha: 500 g ai/ha
Outline: as §4

[15] = 125 g ai/ha, postemergence, 0 to 100 scale, 0 no effect, 100 complete control
[16] = Postemergence, 500 g ai/ha, 0 to 100 scale (0 no effect, 100 complete control)
[17] = Preemergence, 125 g ai/ha, 0 to 100 scale where 0 is no effect and 100 is complete control
[18] = Preemergence, 500 g ai/ha, 0 to 100 scale where 0 is no effect and 100 is complete control
[19] = post-emergence, postemergence, 0 to 100 scale, 0 no effect, 100 complete control
[20] = post-emergence, Postemergence, 0 to 100 scale (0 no effect, 100 complete control)
[21] = pre-emergence, Preemergence, 0 to 100 scale where 0 is no effect and 100 is complete control

SMILES: FC(F)c1cc(-c2ccccc2Oc2ncc(Cl)cn2)on1 [Compound 53, 5-chloro-2-[2-[3-(difluoromethyl)-5-isoxazolyl]phenoxy]pyrimidine]
- pest or weed control at 250 g/ha [1]: 80%
- pest or weed control at 250 g/ha [2]: 75%
- pest or weed control at 250 g/ha [3]: 20%
- plant injury at 250 g/ha (rice (Oryza sativa)): 20%
- Plant response rating, Galium [4, 15]: 100
- Plant response rating, Galium [4, 16]: 100
- Plant response rating, Blackgrass [5, 15]: 100
- Plant response rating, Blackgrass [5, 16]: 100
- pest or weed control at 16 g/ha (wild oat (Avena fatua); 16 g ai/ha, scale 0 to 100 (0 no effect, 100 complete control), read-out: Oat, Wild plant response rating): 5%
- pest or weed control at 31 g/ha (wild oat (Avena fatua); 31 g ai/ha, scale 0 to 100 (0 no effect, 100 complete control), read-out: Oat, Wild plant response rating): 10%
- pest or weed control at 62 g/ha (wild oat (Avena fatua); 62 g ai/ha, scale 0 to 100, 0 no effect, 100 complete control, read-out: Plant response rating, Oat, Wild): 30%
- pest or weed control at 125 g/ha (wild oat (Avena fatua); 125 g ai/ha, scale 0 to 100, 0 no effect, 100 complete control, read-out: Plant response rating, Oat, Wild): 20%
- pest or weed control at 16 g/ha (kochia (Kochia scoparia) [6]; 16 g ai/ha, scale 0 to 100 (0 no effect, 100 complete control), read-out: Kochia plant response rating): 90%
- pest or weed control at 31 g/ha (kochia (Kochia scoparia) [6]; 31 g ai/ha, scale 0 to 100 (0 no effect, 100 complete control), read-out: Kochia plant response rating): 100%
- pest or weed control at 62 g/ha (kochia (Kochia scoparia) [6]; 62 g ai/ha, scale 0 to 100, 0 no effect, 100 complete control, read-out: Plant response rating, Kochia): 100%
- pest or weed control at 125 g/ha (kochia (Kochia scoparia) [6]; 125 g ai/ha, scale 0 to 100, 0 no effect, 100 complete control, read-out: Plant response rating, Kochia): 100%
- pest or weed control at 16 g/ha ([7]; 16 g ai/ha, scale 0 to 100 (0 no effect, 100 complete control), read-out: Chickweed plant response rating): 50%
- pest or weed control at 31 g/ha ([7]; 31 g ai/ha, scale 0 to 100 (0 no effect, 100 complete control), read-out: Chickweed plant response rating): 80%
- pest or weed control at 62 g/ha ([7]; 62 g ai/ha, scale 0 to 100, 0 no effect, 100 complete control, read-out: Plant response rating, Chickweed): 80%
- pest or weed control at 125 g/ha ([7]; 125 g ai/ha, scale 0 to 100, 0 no effect, 100 complete control, read-out: Plant response rating, Chickweed): 90%
- Plant response rating, Ryegrass, Italian [8, 15]: 80
- Plant response rating, Ryegrass, Italian [8, 16]: 100
- Plant response rating, Ryegrass, Italian [8, 17]: 10
- Plant response rating, Ryegrass, Italian [8, 18]: 40
- Corn plant response rating (crop injury, 0 = no effect, 100 = complete kill) at 125 g/ha (corn (Zea mays); [15]): 10%
- Corn plant response rating (crop injury, 0 = no effect, 100 = complete kill) at 500 g/ha (corn (Zea mays); [16]): 70%
- Plant response rating, Kochia (kochia (Kochia scoparia) [9]; [15]): 100
- Plant response rating, Kochia (kochia (Kochia scoparia) [9]; [16]): 100
- Plant response rating, Kochia (kochia (Kochia scoparia) [9]; [17]): 100
- Plant response rating, Kochia (kochia (Kochia scoparia) [9]; [18]): 100
- pest or weed control at 125 g/ha [10, 19]: 100%
- pest or weed control at 500 g/ha [10, 20]: 100%
- pest or weed control at 125 g/ha [10, 21]: 100%
- pest or weed control at 500 g/ha [10, 21]: 100%
- pest or weed control at 125 g/ha [11, 19]: 100%
- pest or weed control at 500 g/ha [11, 20]: 100%
- pest or weed control at 125 g/ha [11, 21]: 90%
- pest or weed control at 500 g/ha [11, 21]: 100%
- plant injury at 125 g/ha [12, 15]: 40%
- plant injury at 500 g/ha [12, 16]: 80%
- Plant response rating, Ragweed [13, 15]: 60
- Plant response rating, Ragweed [13, 16]: 90
- Plant response rating, Ragweed [13, 17]: 10
- Plant response rating, Ragweed [13, 18]: 50
- pest or weed control at 125 g/ha [14, 19]: 100%
- pest or weed control at 500 g/ha [14, 20]: 100%
- pest or weed control at 125 g/ha [14, 21]: 90%
- pest or weed control at 500 g/ha [14, 21]: 100%
